# Measurements from patent EP2368885A1, “Derivatives of phenazine useful to treat cancer” (Université de la Méditerranée (Aix-Marseille II), priority 2010, dated 2011).
# System: MiaPaCa-2 cells
# Assay: not given
# Settings: not given
row,Molecule,Cytotoxicity (en %)
1,"2,3-diethoxy-7-ethylcarboxyphenazine [compound 14]",20 > X > 10
2,"2,3-dihydroxy-7,8-diamino(Boc)phenazine [compound 13]",30 >X> 25
3,2-hydroxy-3-ethoxy-7-ethylcarboxyphenazine [compound 5],X>50%
4,"CCCCCCCCCCCCCCCC(=O)Oc1cc2nc3ccccc3nc2cc1OC(=O)CCCCCCCCCCCCCCC [compound 7, 2,3-diopalmitoylphenazine]",50 >X> 40

# System: MiaPaCa-2 cells
# Assay: MTT colorimetric cytotoxicity assay on pancreatic chemoresistant cancer MiaPaCa-2 cells
# Settings: 48 hours incubation, tested concentration not stated
row,Molecule,Cytotoxicity (en %)
1,"CCCCCCCCCCCCOc1cc2nc3ccc(C(=O)O)cc3nc2cc1OCCCCCCCCCCCC [compound 1, 2,3-didodecanoxy-7-carboxyphenazine]",X>50%
2,"CCCCCCCCCCCCOc1cc2nc3cc(N)c(N)cc3nc2cc1OCCCCCCCCCCCC [compound 2, 2,3-didodecanoxy-7,8-diaminophenazine]",X>50%
3,"CCCCCCCCCCCCOc1cc2nc3ccccc3nc2cc1OCCCCCCCCCCCC [compound 3, 2,3-didodecanoxyphenazine]",X>50%
4,"CCCCCCCCCCCCOc1cc2nc3ccc(C(=O)NCCN(C)C)cc3nc2cc1OCCCCCCCCCCCC [compound 4, 2,3-didodecanoxy-7-dimethylaminoethylcarbamoylphenazine]",X > 50%
